# Reference: patent US6890960B1, “Vetiver oil extracts as termite repellent and toxicant” (Board of Supervisors of Louisiana State University and …, priority 1999, dated 2005)
# Like-named read-outs stand apart in the source and are kept apart here.
# Legend:
# [1] = system: Formosan subterranean termites; experiment: Feeding and tunneling experiment with treated balsa wood; type: in vivo, Coptotermes formosanus; details: data not shown
# Experimental: Balsa wood (5 cm×5 cm×0.5 mm) was soaked for 1 hr in a 1% ethanol solution of either vetiver oil, nootkatone, TIM-BOR®, or an ethanol control. The treated wood was then dried and allowed to air until used in the experiments. The experiments were run at one, three, and six months after the wood was treated. The feeding and tunneling experimental procedure was as described in Example 2, except that in place of the filter paper as food for the termites, treated balsa wood was placed in each end compartment; and untreated sand was placed in all three chambers. Into the center chamber was added 225 workers and 25 soldiers collected from two large Formosan termite colonies in New Orleans, La. Three replicate containers for each of the two colonies and for each treatment of balsa wood were monitored for 8 days. Tunneling activity was periodically checked on days 3, 5, and 7 by scanning the bottoms of the containers. On day 8, the balsa wood was removed and weighed to determine wood consumption.
# humans = details: use in perfumery and flavor industries; cited from earlier work
# [2] = system: Formosan subterranean termites; type: in vivo; details: for Worker Mortality, Mean ± S.D.: workers only
# Experimental: The amount of nootkatone isolated from the vetiver oil was insufficient to test for termite repellant activity. Nootkatone was therefore purchased from a commercial source (Lancaster Synthesis Inc., Windham, N.H.). A three-chambered plastic container was used as described above in Example 2. A small hole was melted at the bottom of each of the two inner walls to connect the chambers. Four replicate chambers were used for each concentration of nootkatone (μg/g of sand) tested: 0, 10 μg/g, 20 μg/g, 100 μg/g, and 200 μg/g. For each concentration, the nootkatone in 25 ml ethyl alcohol was mixed with 500 g #4 blasting sand as described in Example 2. The sand was dried overnight. The next day, 115 g of treated sand was added to the middle chamber; 115 g untreated sand was added to one end chamber, and a weighted filter paper (Whatman #1, 55 mm) was placed in the opposite end chamber. The filter paper had been dried at 70° C. for 3 hr and cooled to room temperature before weighing. Then 10 ml ddH2O was added to each chamber with sand and 200 μl ddH2O was added to the filter paper. Four containers with no nootkatone served as negative controls. Fifty worker and 5 soldier termites from a single colony collected in Algiers, La., were placed in each untreated sand chamber. The chambers were covered and kept in a dark incubator at 29° C.
# On the 16th day, the number of live termites was counted, and the bottom of each container was scanned to determine tunneling length as described in Example 2. The filter paper from each container was removed, cleaned, dried at 70° C. for 3 hr, cooled, and finally weighed.
# Between-treatment differences in filter paper weight, mortality, and tunnel length in the treated compartments were compared by analysis of variance (ANOVA) and Tukey's Studentized Range Test. The results are presented in Tables 4, 5, and 6 and in FIGS. 1-3.
# termites = experiment: Quick petri dish termite distribution assay of α-cedrene (treated vs untreated sand); type: in vivo; details: 100 μg/dish
# Experimental: The termite bio-activity of α-cedrene, a component of vetiver oil, was tested using a commercially available product (Fluka, a division of Sigma-Aldrich, Inc., St. Louis, Mo.). A new method for screening compounds for termite bio-activity was developed that was faster than the bioassay described in Example 2. Five cm diameter petri dishes with lids were used. Two ml of hot agar solution (1.5 g/100 ml ddH2O) was spread evenly in the bottom of each dish and allowed to cool. The agar solution provided moisture for the termites and held the sand in place. The sand was autoclaved for 30 min, the alcohol with sample added, and dried in an oven. For three dishes, one half of the bottom of each dish was covered with 1.5 g treated sand mixed with a total of 100 μg α-cedrene per dish, dissolved in 250 μl ethanol, and the other half with 1.5 g untreated sand (only ethanol). The sand completely covered the agar, but was not thick enough to conceal tunneling termites. Three dishes were prepared as a control with only untreated sand in each side. Finally, ten termites were added to each dish, and the dishes were covered to eliminate light.
# The termite distribution in each dish, measured by counting the number of termites on the untreated half of the dish, was examined each hour for up to 8 hr. […] Therefore the extract was considered a repellent. The extract was considered toxic if some or all termites behaved sluggishly, were moribund or dead.
smiles,measurement,setting,value
"C=C(C)C1CCC2=CC(=O)CC(C)C2(C)C1 (stereo not shown) [nootkatone, 4,4a5,6,7,8-hexahydro-6-isopropenyl-4,4a-dimethyl-2(3H)-naphthalenone]",ranking of effect on wood consumption,[1]; 1 and 3 month interval after wood treatment,greatest effect on decreasing wood consumption
same,wood consumption vs control group,"[1]; balsa wood soaked in 1% ethanol solution, 1, 3 and 6 months after treatment, day 8",consumed less wood than the control group
same,effectiveness as a termite repellent,[1]; six months after the initial treatment of the wood sample,retained their effectiveness
same,reduction of wood consumption compared with borate solution,[1]; six months after wood treatment,as effective as the borate solution
same,tunneling activity of the termites,"[1]; treated balsa wood, even after three months",substantially reduced with vetiver oil and especially with nootkatone
same,toxicity to humans,humans,essentially non-toxic to humans
same,"Filter Paper Consumption, Mean ± S.D.","[2]; 10 μg/gm sand, 16th day",0.0019 ± 0.002641 gm
same,"Tunnel Length in Treated Compartment, Mean ± S.D.","[2]; 10 μg/gm sand, 16th day",7.225 ± 5.155 cm
same,"Worker Mortality, Mean ± S.D.","[2]; 10 μg/gm sand, 16th day",88.50 ± 10.12
same,"Filter Paper Consumption, Mean ± S.D.","[2]; 20 μg/gm sand, 16th day",0.000525 ± 0.000709 gm
same,"Tunnel Length in Treated Compartment, Mean ± S.D.","[2]; 20 μg/gm sand, 16th day",0.000 ± 0.000 cm
same,"Worker Mortality, Mean ± S.D.","[2]; 20 μg/gm sand, 16th day",87.00 ± 18.22
same,"Filter Paper Consumption, Mean ± S.D.","[2]; 100 μg/gm sand, 16th day",0.000025 ± 0.000050 gm
same,"Tunnel Length in Treated Compartment, Mean ± S.D.","[2]; 100 μg/gm sand, 16th day",0.000 ± 0.000 cm
same,"Worker Mortality, Mean ± S.D.","[2]; 100 μg/gm sand, 16th day",90.50 ± 11.70
same,"Filter Paper Consumption, Mean ± S.D.","[2]; 200 μg/gm sand, 16th day",0.000275 ± 0.00055 gm
same,"Tunnel Length in Treated Compartment, Mean ± S.D.","[2]; 200 μg/gm sand, 16th day",0.000 ± 0.000 cm
same,"Worker Mortality, Mean ± S.D.","[2]; 200 μg/gm sand, 16th day",95.00 ± 8.718
same,worker mortality,[2]; all chambers where the nootkatone concentration was ≦100 μg/g sand,Ninety percent mortality or greater
same,tunneling in the middle chamber,"[2]; concentrations higher than 10 μg/g, 16th day",no tunneling was visible
same,consumption of filter paper,[2]; concentrations higher than 20 μg/g,Almost no consumption of filter paper
same,"lowest concentration effective as repellent and toxicant (decreased tunneling and feeding, increased mortality)",[2]; in sand,10 µg/g
same,feeding as measured by loss of filter paper weight vs control,[2]; lowest concentration (10 μg/g),significantly decreased feeding
same,tunneling activity in middle chamber,"[2]; lowest concentration of 10 μg/g, 16th day",substantially decreased the tunneling activity
"CC1=CC[C@@]23C[C@@H]1C(C)(C)[C@@H]2CC[C@H]3C [α-Cedrene, α-cedrene]",termite deaths,termites,None of the termites died
same,repellency for termites,termites; 2-3 h time frame,weak repellent
same,Percent of termites on the untreated side (sum of the three replicates),termites; 1 hr,50%
same,Percent of termites on the untreated side (sum of the three replicates),termites; 2 hr,93.3%
same,Percent of termites on the untreated side (sum of the three replicates),termites; 3 hr,86.7%
same,Percent of termites on the untreated side (sum of the three replicates),termites; 4 hr,63.3%
same,Percent of termites on the untreated side (sum of the three replicates),termites; 24 hr,63.3%
